We go through 7 molecules from PubChem BioAssay (NCI).

Some test systems named below: PC-3 prostate; NCI/ADR-RES ovarian; MOLT-4 leukemia; UACC-257 melanoma; SNB-75 CNS; SNB-19 CNS; LOX IMVI melanoma; T-47D breast; HT29 colon; ACHN renal.
Common to all, as to test: inhibition of tumour cell growth, NCI panel, 48 h

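How tested: cells in 96-well plates exposed to compound for 48 hours at five concentrations. Abbreviation: GI50, concentration required for 50% inhibition of growth. TGI: concentration producing complete growth inhibition.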

As for `COc1ccc(/C=C\c2cc(OC)c(OC)c(OC)c2)cc1OCC(=O)Nc1nc2ccc(C(F)(F)F)cc2s1`, the GI50 in the experiment on PC-3 prostate was 4.32 µM; with NCI/ADR-RES ovarian, 2.12 µM; with MOLT-4 leukemia it was 3.75 µM; with UACC-257 melanoma, 40 µM; in the experiment with SNB-75 CNS, 1.58 µM; with SNB-19 CNS, 5.03 µM. For the same molecule, the GI50 in the experiment on LOX IMVI melanoma was 4.01 µM; in the experiment with T-47D breast, 4.79 µM; in the experiment with HT29 colon it was 14.9 µM; in the experiment with ACHN renal, 4.83 µM. Besides, the TGI in the experiment on PC-3 prostate is above 100 µM; in the experiment with NCI/ADR-RES ovarian, 5.8 µM; in the experiment with MOLT-4 leukemia, above 100 µM; in the experiment on UACC-257 melanoma it was above 100 µM; in the experiment with SNB-75 CNS it was 6.47 µM; in the experiment on SNB-19 CNS, above 100 µM. Further, the TGI in the experiment on LOX IMVI melanoma, in the experiment on T-47D breast, with HT29 colon and with ACHN renal was above 100 µM each time.

For `Cc1cc(S(=O)(=O)Nc2nnc(-c3ccccc3)c(-c3ccccc3)n2)c(SCc2ccccc2)cc1Cl`, the GI50 in the experiment on PC-3 prostate is 21.2 µM; in the experiment with NCI/ADR-RES ovarian it was 32.8 µM; with MOLT-4 leukemia, 15 µM; in the experiment with UACC-257 melanoma, 28.5 µM; with SNB-75 CNS, 29.4 µM; in the experiment on SNB-19 CNS it was 25.7 µM. Also, the GI50 in the experiment on LOX IMVI melanoma was 26.2 µM; in the experiment on T-47D breast it was 23.8 µM; in the experiment with HT29 colon, 22.4 µM; in the experiment with ACHN renal, 17.6 µM. Moreover, the TGI in the experiment with PC-3 prostate came out at 58 µM; in the experiment on NCI/ADR-RES ovarian, 90.3 µM; in the experiment with MOLT-4 leukemia it was 36.8 µM; with UACC-257 melanoma, 70.1 µM; in the experiment with SNB-75 CNS it was 49 µM; in the experiment with SNB-19 CNS, 52.7 µM. Further, the TGI with LOX IMVI melanoma was 50.2 µM; with T-47D breast, 52.3 µM; in the experiment on HT29 colon it was 51.7 µM; in the experiment on ACHN renal, 32.6 µM.

As for `CCOC(CN=c1nc(N(C)C)ss1)OCC`, the TGI was 32 µM with PC-3 prostate; above 100 µM with NCI/ADR-RES ovarian; 25.4 µM in the experiment on MOLT-4 leukemia; 40.7 µM in the experiment on UACC-257 melanoma; 78.4 µM in the experiment with SNB-75 CNS; above 77.4 µM in the experiment on SNB-19 CNS. The TGI with LOX IMVI melanoma is 31.2 µM; in the experiment on T-47D breast, above 63.7 µM; with HT29 colon, 17.5 µM; with ACHN renal, 58.7 µM.

On to `Cc1ccc2c(=O)c3cccc(CC(=O)O)c3oc2c1C`, for which the GI50 with PC-3 prostate, in the experiment with NCI/ADR-RES ovarian, in the experiment on MOLT-4 leukemia, in the experiment on UACC-257 melanoma, in the experiment with SNB-75 CNS and with SNB-19 CNS was above 100 µM throughout. Besides, the GI50 with LOX IMVI melanoma, in the experiment on T-47D breast, in the experiment with HT29 colon and with ACHN renal was above 100 µM each time. In addition, the TGI with PC-3 prostate, in the experiment on NCI/ADR-RES ovarian, with MOLT-4 leukemia, with UACC-257 melanoma, in the experiment with SNB-75 CNS and with SNB-19 CNS was above 100 µM in each case. In addition, the TGI with LOX IMVI melanoma, with T-47D breast, in the experiment with HT29 colon and with ACHN renal was above 100 µM throughout.

For the molecule `C=C1C(=O)O[C@H]2[C@H]1CC/C(Cn1cc(-c3ccccc3)nn1)=C\CC[C@@]1(C)O[C@@H]21`, the GI50 with PC-3 prostate was 5.65 µM; in the experiment on NCI/ADR-RES ovarian, 6.17 µM; in the experiment with MOLT-4 leukemia it was 1.29 µM; in the experiment on UACC-257 melanoma, 3.78 µM; in the experiment on SNB-75 CNS it was 6.21 µM; with SNB-19 CNS it was 7.87 µM. The GI50 in the experiment on LOX IMVI melanoma is 0.808 µM; with T-47D breast, 1.3 µM; in the experiment on HT29 colon, 1.79 µM; with ACHN renal it was 0.941 µM. For the same molecule, the TGI in the experiment on PC-3 prostate amounted to 12 µM; with NCI/ADR-RES ovarian, 13.7 µM; in the experiment on MOLT-4 leukemia, 3.53 µM; with UACC-257 melanoma, 10.5 µM; with SNB-75 CNS, 13 µM; in the experiment on SNB-19 CNS, 17 µM. The TGI was 1.69 µM in the experiment on LOX IMVI melanoma, 3.94 µM in the experiment on T-47D breast, 6.3 µM with HT29 colon and 2.46 µM with ACHN renal.

For the molecule `O=C1c2ccccc2-c2c1c1ccccc1c(=O)n2CCCN1CCOCC1`, the GI50 in the experiment on PC-3 prostate is 26.2 µM; in the experiment on NCI/ADR-RES ovarian it was 18.2 µM; with MOLT-4 leukemia it was 8.11 µM; with UACC-257 melanoma it was above 100 µM; with SNB-75 CNS, 2.98 µM; in the experiment on SNB-19 CNS, 14.2 µM. Also, the GI50 is 8.87 µM with LOX IMVI melanoma, 19.6 µM in the experiment on T-47D breast, above 100 µM in the experiment on HT29 colon and 10.7 µM with ACHN renal. For the same molecule, the TGI in the experiment with PC-3 prostate was above 100 µM; in the experiment on NCI/ADR-RES ovarian, above 100 µM; in the experiment on MOLT-4 leukemia it was above 100 µM; in the experiment with UACC-257 melanoma, above 100 µM; in the experiment with SNB-75 CNS, above 27.7 µM; in the experiment with SNB-19 CNS, 39.1 µM. The TGI in the experiment with LOX IMVI melanoma was 62.1 µM; with T-47D breast, 97.4 µM; with HT29 colon it was above 100 µM; in the experiment on ACHN renal, 59.5 µM.

`Cc1cc2c(F)c(Oc3ncnn4cc(OC[C@@H](C)OC(=O)[C@H](C)N)c(C)c34)ccc2[nH]1`: the GI50 is 5.28 µM in the experiment with PC-3 prostate; 9.79 µM with NCI/ADR-RES ovarian; 7.25 µM in the experiment on MOLT-4 leukemia; 14.6 µM with UACC-257 melanoma; 9.42 µM in the experiment with SNB-75 CNS; 9.99 µM in the experiment on SNB-19 CNS. In addition, the GI50 in the experiment on LOX IMVI melanoma is 3.75 µM; in the experiment with T-47D breast, 13.4 µM; in the experiment on HT29 colon it was 5.73 µM; in the experiment on ACHN renal, 8.85 µM. Also, the TGI came out at 23.9 µM with PC-3 prostate; 30.2 µM with NCI/ADR-RES ovarian; 23.5 µM with MOLT-4 leukemia; 28.1 µM in the experiment with UACC-257 melanoma; 24.6 µM with SNB-75 CNS; 23 µM with SNB-19 CNS. Also, the TGI stood at 18.1 µM in the experiment with LOX IMVI melanoma, 31.7 µM in the experiment on T-47D breast, 18.9 µM in the experiment with HT29 colon and 21.5 µM with ACHN renal.
